# Patent publication US8188078B2 (Sanofi-Aventis, priority 2007, dated 2012)
# Assays:
# c-MET = target: T1, c-MET (Homo sapiens, UniProt P08581); assay: Test A: HTRF Met test in 96-well format; assay type: biochemical
# T1 construct: The recombinant DNA His-Tev-MET (956-1390) in pFastBac(Invitrogen); His (N, cleaved yes); Tev (TEV protease site) (N, cleaved yes); made in house; host or cells: SF21 insect cells (baculovirus, pFastBac)
# Method: I) Expression and Purification of MET, Cytoplasmic Domain
# The recombinant DNA His-Tev-MET (956-1390) in pFastBac(Invitrogen) is transfected in insect cells and after several stages of viral amplification, the final stock of baculovirus is tested for expression of the protein of interest.
# After infection for 72 h at 27° C. with the recombinant virus, the SF21 cell cultures are harvested by centrifugation and the cellular deposits are stored at −80° C.
# The cellular deposits are resuspended in the lysis buffer (buffer A [50 mM HEPES, pH 7.5, 250 mM NaCl, Glycerol 10%, TECP 1 mM]; +cocktail of protease inhibitors Roche Diagnostics without EDTA, ref 1873580), stirred at 4° C. until homogeneous, then lysed mechanically using apparatus of the “Dounce” type.
# After centrifugation, the lysis supernatant is incubated for 2 h at 4° C. with Nickel Chelate resin (His-Trap 6 Fast Flow™, GE HealthCare). After washing with 20 volumes of Tp A, the suspension is packed in a column, and the proteins are eluted with a gradient of buffer B ([…]+290 mM imidazole).
# The fractions containing the protein of interest with a view to electrophoretic analysis (SDS PAGE) are collected, concentrated by ultrafiltration (cut-off 10 kDa) and injected in an exclusion chromatography column (Superdex™ 200, GE HealthCare) equilibrated with buffer A.
# After enzymatic cleavage of the tag Histidine, the protein is reinjected in a new IMAC Nickel Chelate chromatography column (His-Trap 6 Fast Flow™, GE HealthCare) equilibrated with Buffer A. The fractions eluted with a gradient of buffer B and containing the protein of interest after electrophoresis (SDS PAGE), are finally collected and stored at −80° C.
# For the production of autophosphorylated protein, the preceding fractions are incubated for 1 h at room temperature after adding ATP 2 mM, MgCl2 2 mM, and Na3VO4 4 mM. After stopping the reaction with 5 mM of EDTA, the reaction mixture is injected in a HiPrep desalting column (GE HealthCare) equilibrated beforehand with buffer A+Na3VO4 4 mM; the fractions containing the protein of interest (SDS PAGE analysis) are collected and stored at −80° C. The degree of phosphorylation is verified by mass spectrometry (LC-MS), and by peptide mapping.
# A) HTRF Met test in 96-well format
# In a final volume of 50 μl of enzymatic reaction mixture, final c-MET 5 nM is incubated in the presence of the molecule to be tested (for a final concentration range from 0.17 nM to 10 μM, final DMSO 3%) in buffer MOPS 10 mM pH 7.4, DTT 1 mM, Tween 20 0.01%. The reaction is initiated by the substrate solution to obtain the final concentrations of poly-(GAT) 1 μg/ml, ATP 10 μM and MgCl2 5 mM. After incubation for 10 min at room temperature, the reaction is stopped with a mix of 30 μl to obtain a final solution of Hepes 50 mM pH 7.5, potassium fluoride 500 mM, BSA 0.1% and EDTA 133 mM in the presence of 80 ng Streptavidin 61SAXLB Cis-Bio Int. and 18 ng anti-phosphotyrosine Mab PT66-Europium Cryptate per well. After 2 hours of incubation at room temperature, reading is carried out at 2 wavelengths 620 nm and 665 nm in a reader for the TRACE/HTRF technique and the percentage inhibition is calculated according to the 665/620 ratios.
# MKN45 cells = assay: Test D: cellular proliferation by 14C-thymidine pulse, MKN45 cells; assay type: cell-based; conditions: Homo sapiens, MKN-45, cellular proliferation by 14C-thymidine pulse; cell line not stated (HCT116 or MKN45)
# Method: D) Measurement of Cellular Proliferation by 14C-Thymidine Pulse
# The cells are sown in Cytostar 96-well plates under 180 μl for 4 hours at 37° C. and 5% CO2: The HCT116 cells at a rate of 2500 cells per well in DMEM medium+10% foetal calf serum+1% of L-glutamine and the MKN45 cells at a rate of 7500 cells per well in RPMI medium+10% foetal calf serum+1% of L-glutamine. After said incubation for 4 hours, the products are added under 10 μl in 20-times concentrated solution according to the method of dilution stated for ELISA. The products are tested at 10 concentrations in duplicate from 10000 nM to 0.3 nM in steps of 3.
# After treatment for 72 h, add 10 μl of 14C-thymidine at 10 μCi/ml to obtain 0.1 μCi per well. The incorporation of 14C-thymidine is measured on a Micro-Beta (Perkin-Elmer) after 24 hours of pulse and 96 h of treatment.
# All the stages of the test are automated on the BIOMEK 2000 or TECAN stations.
# MET = target: T2, MET (Homo sapiens, UniProt P08581); assay: Test C: inhibition of the autophosphorylation of MET, ELISA technique (pppY1230, 1234, 1235), MKN45 cells; assay type: cell-based
# T2 construct: endogenous in cells; host or cells: MKN45 cells
# T2 sequence (P08581 25-1390): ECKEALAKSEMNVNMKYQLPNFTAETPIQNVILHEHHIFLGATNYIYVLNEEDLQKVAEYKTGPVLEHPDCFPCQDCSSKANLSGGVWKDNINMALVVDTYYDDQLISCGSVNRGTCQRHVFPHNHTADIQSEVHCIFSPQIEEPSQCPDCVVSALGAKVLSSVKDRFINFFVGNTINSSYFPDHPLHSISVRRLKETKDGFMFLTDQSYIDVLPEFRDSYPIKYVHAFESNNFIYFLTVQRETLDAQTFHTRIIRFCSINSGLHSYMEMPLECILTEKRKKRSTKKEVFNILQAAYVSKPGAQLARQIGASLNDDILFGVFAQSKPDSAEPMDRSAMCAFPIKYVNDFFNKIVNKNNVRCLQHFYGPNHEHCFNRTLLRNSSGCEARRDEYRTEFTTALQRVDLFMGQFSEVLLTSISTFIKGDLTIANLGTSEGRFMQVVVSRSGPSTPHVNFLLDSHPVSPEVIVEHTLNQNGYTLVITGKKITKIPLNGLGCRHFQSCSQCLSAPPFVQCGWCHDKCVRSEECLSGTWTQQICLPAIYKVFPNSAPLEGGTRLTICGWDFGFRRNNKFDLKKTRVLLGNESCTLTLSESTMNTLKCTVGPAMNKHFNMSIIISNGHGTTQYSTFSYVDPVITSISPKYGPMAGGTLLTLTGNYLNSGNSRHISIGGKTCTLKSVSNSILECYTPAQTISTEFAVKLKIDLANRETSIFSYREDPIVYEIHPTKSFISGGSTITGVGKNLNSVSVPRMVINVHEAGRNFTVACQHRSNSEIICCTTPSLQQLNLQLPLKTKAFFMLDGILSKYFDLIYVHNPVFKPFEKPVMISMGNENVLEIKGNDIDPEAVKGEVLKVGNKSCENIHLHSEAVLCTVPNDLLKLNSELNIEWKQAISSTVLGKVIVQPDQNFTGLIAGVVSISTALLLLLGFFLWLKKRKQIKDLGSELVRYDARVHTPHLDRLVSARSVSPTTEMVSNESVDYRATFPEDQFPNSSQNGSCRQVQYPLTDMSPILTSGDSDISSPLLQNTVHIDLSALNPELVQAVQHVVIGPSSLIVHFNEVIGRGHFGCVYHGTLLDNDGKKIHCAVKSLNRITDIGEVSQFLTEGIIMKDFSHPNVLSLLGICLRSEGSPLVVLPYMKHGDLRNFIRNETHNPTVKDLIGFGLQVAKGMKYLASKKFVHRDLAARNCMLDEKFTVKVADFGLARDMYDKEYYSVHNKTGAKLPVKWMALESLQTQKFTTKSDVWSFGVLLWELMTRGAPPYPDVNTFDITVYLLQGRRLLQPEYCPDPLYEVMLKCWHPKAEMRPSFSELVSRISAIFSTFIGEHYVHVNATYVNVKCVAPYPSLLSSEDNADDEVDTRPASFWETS
# Method: C) Inhibition of the Autophosphorylation of MET; ELISA Technique (pppY1230, 1234, 1235)
# a) Cellular lysates: Sow the MKN45 cells in a 96-well plate (Cell coat BD polylysine) at 20 000 cells/well under 200 μl of medium RPMI+10% FCS+1% L-glutamine. Leave to adhere to the incubator for 24 h.
# The cells are treated on the day after sowing with the products at 6 concentrations in duplicate for 1 h. At least 3 control wells are treated with the same amount of final DMSO.
# Dilution of the products: Stock at 10 mM in pure DMSO—range from 10 mM to 30 μM with steps of 3 of pure DMSO—Intermediate dilutions to 1/50 in culture medium then taking of 10 μl added directly to the cells (200 μl): final range from 10000 to 30 nM.
# At the end of incubation, carefully remove the supernatant and rinse with 200 μl of PBS. Then put 100 μl of lysis buffer directly in the wells on ice and incubate at 4° C. for 30 minutes. Lysis buffer: 10 mM Tris, HCl pH7.4, 100 mM NaCl, 1 mM EDTA, 1 mM EGTA, 1% Triton X-100, 10% glycerol, 0.1% SDS, 0.5% deoxycholate, 20 mM NaF, 2 mM Na3VO4, 1 mM PMSF and antiprotease cocktail.
# The 100 μl of lysates are transferred to a V-bottomed polypropylene plate and ELISA is performed next or the plate is frozen at −80° C.
# b) ELISA PhosphoMET BioSource Kit KH00281
# In each well of the plate from the kit, add 70 μl of dilution buffer from the kit+30 μL of cell lysate or 30 μl of lysis buffer for the blank. Incubate for 2 h at room temperature, stirring gently.
# Rinse the wells 4 times with 400 μl of washing buffer from the kit. Incubate with 100 μl of anti-phospho MET antibodies for 1 h at room temperature.
# Rinse the wells 4 times with 400 μl of washing buffer from the kit. Incubate with 100 μl of anti-rabbit HRP antibodies for 30 minutes at room temperature (except for the wells with chromogen only).
# Rinse the wells 4 times with 400 μl of washing buffer from the kit. Add 100 μL of chromogen and incubate for 30 minutes in the dark at room temperature.
# Stop the reaction with 100 μl of stop solution. Read at once at […] 0.1 second in the Wallac Victor plate reader.
# The products of formula (I) as defined above show cellular activity in this test between 10 nM and 10 μM.
# T1 sequence (P08581 956-1390): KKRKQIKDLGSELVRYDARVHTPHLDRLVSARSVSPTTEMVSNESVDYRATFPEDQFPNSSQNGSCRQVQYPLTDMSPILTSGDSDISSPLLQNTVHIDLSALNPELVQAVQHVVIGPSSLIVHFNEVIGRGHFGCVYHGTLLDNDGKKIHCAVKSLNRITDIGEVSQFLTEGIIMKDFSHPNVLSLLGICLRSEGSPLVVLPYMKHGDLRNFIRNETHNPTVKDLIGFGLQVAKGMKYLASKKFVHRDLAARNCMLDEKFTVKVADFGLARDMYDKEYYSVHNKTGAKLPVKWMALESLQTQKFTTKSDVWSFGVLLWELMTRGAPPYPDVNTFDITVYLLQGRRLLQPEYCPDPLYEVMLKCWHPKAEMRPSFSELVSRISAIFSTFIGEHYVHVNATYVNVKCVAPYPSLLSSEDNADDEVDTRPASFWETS
Compound,IC50 (c-MET) [nM],IC50 (MKN45 cells) [nM],melting point [°C],IC50 (MET) [nM]
"O=C(NCCN1CCOCC1)Nc1nc2ccc(OCc3cc(Cl)nc(Cl)c3)cc2s1 [Example 16, 1-{6-[(2,6-dichloropyridin-4-yl)methoxy]-1,3-benzothiazol-2-yl}-3-(2-morpholin-4-ylethyl)urea]",100 to 10000,> 10000,193,–
"Cc1cc(COc2ccc3nc(NC(=O)NCCN4CCOCC4)sc3c2)n(C)n1 [Example 20, 1-{6-[(1,3-dimethyl-1H-pyrazol-5-yl)methoxy]-1,3-benzothiazol-2-yl}-3-(2-morpholin-4-ylethyl)urea]",100 to 10000,> 10000,160,–
"CC(Oc1ccc2nc(N)sc2c1)c1c(Cl)ccc(F)c1Cl (stereo not drawn) [Example 23, 6-[1-(2,6-dichloro-3-fluorophenyl)ethoxy]-1,3-benzothiazol-2-amine]",100 to 10000,> 10000,186 to 194,–
"Cc1ccc(F)c(C(C)Oc2ccc3nc(N)sc3c2)c1Cl (stereo not drawn) [Example 27, 6-[1-(2-chloro-6-fluoro-3-methylphenyl)ethoxy]-1,3-benzothiazol-2-amine]",100 to 10000,> 10000,170,–
"CC(Oc1ccc2nc(NC(=O)NCCN3CCOCC3)sc2c1)c1c(F)ccc(Cl)c1F (stereo not drawn) [Example 63, 1-{6-[1-(3-chloro-2,6-difluorophenyl)ethoxy]-1,3-benzothiazol-2-yl}-3-(2-morpholin-4-ylethyl)urea]",100 to 10000,> 10000,154,500 to 10000
"COCCN(C)C(=O)Nc1nc2cc(F)c(OC(C)c3c(Cl)ccc(F)c3Cl)cc2s1 (stereo not drawn) [Example 93, 3-{6-[1-(2,6-dichloro-3-fluorophenyl)ethoxy]-5-fluoro-1,3-benzothiazol-2-yl}-1-(2-methoxyethyl)-1-methylurea]",< 100,500 to 10000,62 to 67,500 to 10000
"Cc1cc2nc(NC(=O)NCCN3CCOCC3)sc2cc1OC(C)c1c(Cl)ccc(F)c1Cl (stereo not drawn) [Example 107, 1-{6-[1-(2,6-dichloro-3-fluorophenyl)ethoxy]-5-methyl-1,3-benzothiazol-2-yl}-3-[2-(morpholin-4-yl)ethyl]urea]",< 100,500 to 10000,270 to 276,< 500
"CCC(Oc1ccc2nc(NC(=O)NCCN3CCOCC3)sc2c1)c1c(Cl)cccc1Cl (stereo not drawn) [Example 122, 1-{6-[1-(2,6-dichlorophenyl)propoxy]-1,3-benzothiazol-2-yl}-3-[2-(morpholin-4-yl)ethyl]urea]",< 100,500 to 10000,200,500 to 10000

# Other lines, results leading:
IC50 (c-MET) [nM],IC50 (MKN45 cells) [nM],melting point [°C],IC50 (MET) [nM],Compound
< 100,> 10000,215,500 to 10000,"O=C(Nc1nc2cc(F)c(OCc3c(Cl)cccc3Cl)cc2s1)C1CC1 [Example 22, N-{6-[(2,6-dichlorobenzyl)oxy]-5-fluoro-1,3-benzothiazol-2-yl}cyclopropanecarboxamide]"
< 100,< 500,186 to 189,< 500,"CC(Oc1cc2sc(NC(=O)C3CC3)nc2cc1F)c1c(Cl)ccc(F)c1Cl (stereo not drawn) [Example 67, N-{6-[1-(2,6-dichloro-3-fluorophenyl)ethoxy]-5-fluoro-1,3-benzothiazol-2-yl}cyclopropanecarboxamide]"
< 100,500 to 10000,166 to 167,< 500,"CCOCCNC(=O)Nc1nc2cc(F)c(OC(C)c3c(Cl)ccc(F)c3Cl)cc2s1 (stereo not drawn) [Example 86, 1-{6-[1-(2,6-dichloro-3-fluorophenyl)ethoxy]-5-fluoro-1,3-benzothiazol-2-yl}-3-(2-ethoxyethyl)urea]"
< 100,500 to 10000,178 to 198,500 to 10000,"CC(Oc1cc2sc(NC(=O)NCCn3cccc3)nc2cc1F)c1c(Cl)ccc(F)c1Cl (stereo not drawn) [Example 91, 1-{6-[1-(2,6-dichloro-3-fluorophenyl)ethoxy]-5-fluoro-1,3-benzothiazol-2-yl}-3-[2-(1H-pyrrol-1-yl)ethyl]urea]"
< 100,500 to 10000,177 to 184,< 500,"CC(C)OCCNC(=O)Nc1nc2cc(F)c(OC(C)c3c(Cl)ccc(F)c3Cl)cc2s1 (stereo not drawn) [Example 92, 1-{6-[1-(2,6-dichloro-3-fluorophenyl)ethoxy]-5-fluoro-1,3-benzothiazol-2-yl}-3-(2-isopropoxyethyl)urea]"
